System: 186277-243-T-J2-PDC complex spheroids, viability
Test: Anticancer human tumor 186277-243-T-J2-PDC patient-derived colon adenocarcinoma cell line growth inhibition [RAS]
Settings: for IC50: curve of first compound; for viability, T/C: stronger effect = lower value
Method in brief: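 Agents were tested in combination matrices in half-log decrements from a top concentration at or near clinical Cmax (10 microM if undetermined). Targets were multi-cell spheroids of tumour lines plus HUVEC and MSC stromal cells.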

[1] = second compound 0.000949 µM, first compound 0.0316 µM
[2] = second compound 0.000949 µM, first compound 0.1 µM
[3] = second compound 0.000949 µM, first compound 0.316 µM
[4] = second compound 0.000949 µM, first compound 1 µM
[5] = second compound 0.000949 µM, first compound 3.16 µM
[6] = second compound 0.000949 µM, first compound 10 µM
[7] = second compound 0.003 µM, first compound 0.0316 µM
[8] = second compound 0.003 µM, first compound 0.1 µM
[9] = second compound 0.003 µM, first compound 0.316 µM
[10] = second compound 0.003 µM, first compound 1 µM
[11] = second compound 0.003 µM, first compound 3.16 µM
[12] = second compound 0.003 µM, first compound 10 µM
[13] = second compound 0.00949 µM, first compound 0.0316 µM
[14] = second compound 0.00949 µM, first compound 0.1 µM
[15] = second compound 0.00949 µM, first compound 0.316 µM
[16] = second compound 0.00949 µM, first compound 1 µM
[17] = second compound 0.00949 µM, first compound 3.16 µM
[18] = second compound 0.00949 µM, first compound 10 µM
[19] = second compound 0.03 µM, first compound 0.0316 µM
[20] = second compound 0.03 µM, first compound 0.1 µM
[21] = second compound 0.03 µM, first compound 0.316 µM
[22] = second compound 0.03 µM, first compound 1 µM
[23] = second compound 0.03 µM, first compound 3.16 µM
[24] = second compound 0.03 µM, first compound 10 µM
[25] = second compound 0.0949 µM, first compound 0.0316 µM
[26] = second compound 0.0949 µM, first compound 0.1 µM
[27] = second compound 0.0949 µM, first compound 0.316 µM
[28] = second compound 0.0949 µM, first compound 1 µM
[29] = second compound 0.0949 µM, first compound 3.16 µM
[30] = second compound 0.0949 µM, first compound 10 µM
[31] = second compound 0.3 µM, first compound 0.0316 µM
[32] = second compound 0.3 µM, first compound 0.1 µM
[33] = second compound 0.3 µM, first compound 0.316 µM
[34] = second compound 0.3 µM, first compound 1 µM
[35] = second compound 0.3 µM, first compound 3.16 µM
[36] = second compound 0.3 µM, first compound 10 µM
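Further: spheroids exposed to compounds for 7 days before viability read.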

For `CC1(O)CCCC1n1c(=O)c(C(F)F)cc2cnc(NC3CCN(S(C)(=O)=O)CC3)nc21` (stereo unspecified) + CCn1c(-c2cc(N3CCN(C)CC3)cnc2C(C)OC)c2c3cc(ccc31)-c1csc(n1)CC(NC(=O)C1CC1C)C(=O)N1CCCC(N1)C(=O)OCC(C)(C)C2, the IC50 (second compound 0.000949 µM) was 3790 nM, the IC50 (second compound 0.003 µM) was 1080 nM and the IC50 (second compound 0.00949 µM) was < 31.6 nM. The IC50 (second compound 0.03 µM) was < 31.6 nM, the IC50 (second compound 0.0949 µM) was < 31.6 nM and the IC50 (second compound 0.3 µM) was < 31.6 nM. The viability, T/C [1] was 124%, the viability, T/C [2] was 104% and the viability, T/C [3] was 108%. It also gave a viability, T/C [4] of 86.7%, a viability, T/C [5] of 61.8% and a viability, T/C [6] of 1.35%. The viability, T/C [7] was 116%, the viability, T/C [8] was 107% and the viability, T/C [9] was 60.8%. For the same molecule, the viability, T/C [10] was 55.4%, the viability, T/C [11] was 36.9% and the viability, T/C [12] was 0.72%. The viability, T/C [13] was 47.4%, the viability, T/C [14] was 41% and the viability, T/C [15] was 23.6%. For the same molecule, the viability, T/C [16] was 20.1%, the viability, T/C [17] was 14% and the viability, T/C [18] was 0.4%. For the same molecule, the viability, T/C [19] was 15.2%, the viability, T/C [20] was 11.5% and the viability, T/C [21] was 10.6%. The viability, T/C [22] was 9.98%, the viability, T/C [23] was 7.39% and the viability, T/C [24] was 0.34%. The viability, T/C [25] was 9.76%, the viability, T/C [26] was 7.17% and the viability, T/C [27] was 6.71%. The viability, T/C [28] was 6.53%, the viability, T/C [29] was 5.94% and the viability, T/C [30] was 0.31%. For the same molecule, the viability, T/C [31] was 6.48%, the viability, T/C [32] was 6.07% and the viability, T/C [33] was 5.61%. For the same molecule, the viability, T/C [34] was 5.93%, the viability, T/C [35] was 5.05% and the viability, T/C [36] was 0.34%.

In the case of `CC(Nc1ccc2c(c1)OCCn1cc(N3C(=O)OCC3C(F)F)nc1-2)C(N)=O` (stereo unspecified) + CCn1c(-c2cc(N3CCN(C)CC3)cnc2C(C)OC)c2c3cc(ccc31)-c1csc(n1)CC(NC(=O)C1CC1C)C(=O)N1CCCC(N1)C(=O)OCC(C)(C)C2, the IC50 (second compound 0.000949 µM) is reported as 347 nM, the IC50 (second compound 0.003 µM) is reported as 88.5 nM and the IC50 (second compound 0.00949 µM) is reported as < 31.6 nM. For the same molecule, the IC50 (second compound 0.03 µM) was < 31.6 nM, the IC50 (second compound 0.0949 µM) was < 31.6 nM and the IC50 (second compound 0.3 µM) was < 31.6 nM. For the same molecule, the viability, T/C [1] was 97.7%, the viability, T/C [2] was 86.3% and the viability, T/C [3] was 48.7%. For the same molecule, the viability, T/C [4] was 27.3%, the viability, T/C [5] was 14.1% and the viability, T/C [6] was 7.59%. For the same molecule, the viability, T/C [7] was 81.8%, the viability, T/C [8] was 46.6% and the viability, T/C [9] was 16.8%. The viability, T/C [10] was 8.63%, the viability, T/C [11] was 3.59% and the viability, T/C [12] was 2.34%. The viability, T/C [13] was 28%, the viability, T/C [14] was 14.8% and the viability, T/C [15] was 4.68%. It also gave a viability, T/C [16] of 2.07%, a viability, T/C [17] of 1.18% and a viability, T/C [18] of 0.72%. For the same molecule, the viability, T/C [19] was 8.29%, the viability, T/C [20] was 4.59% and the viability, T/C [21] was 1.59%. The viability, T/C [22] was 0.91%, the viability, T/C [23] was 0.49% and the viability, T/C [24] was 0.23%. For the same molecule, the viability, T/C [25] was 4.51%, the viability, T/C [26] was 2.41% and the viability, T/C [27] was 1.01%. For the same molecule, the viability, T/C [28] was 0.59%, the viability, T/C [29] was 0.45% and the viability, T/C [30] was 0.24%. For the same molecule, the viability, T/C [31] was 3.65%, the viability, T/C [32] was 2.08% and the viability, T/C [33] was 0.89%. For the same molecule, the viability, T/C [34] was 0.55%, the viability, T/C [35] was 0.35% and the viability, T/C [36] was 0.29%.

For `C=CC(=O)N1CCN(c2nc(OCC3CCCN3C)nc3c(F)c(-c4nc(N)cc(C)c4C(F)(F)F)c(Cl)cc23)C(C)C1` (stereo unspecified) + CCn1c(-c2cccnc2C(C)OC)c2c3cc(ccc31)N1CCOC(CC(NC(=O)C(C(C)C)N(C)C(=O)C3(F)CCN(C(=O)C#CC(C)(C)N(C)C)CC3)C(=O)N3CCCC(N3)C(=O)OCC(C)(C)C2)C1, the IC50 (second compound 0.000949 µM) was > 1000 nM, the IC50 (second compound 0.003 µM) was > 1000 nM and the IC50 (second compound 0.00949 µM) was > 1000 nM. The IC50 (second compound 0.03 µM) was > 1000 nM, the IC50 (second compound 0.0949 µM) was > 1000 nM and the IC50 (second compound 0.3 µM) was > 1000 nM. It also gave a viability, T/C (second compound 0.000949 µM, first compound 0.00316 µM) of 88.7%, a viability, T/C (second compound 0.000949 µM, first compound 0.01 µM) of 79% and a viability, T/C [1] of 89.2%. The viability, T/C [2] was 80.8%, the viability, T/C [3] was 95.6% and the viability, T/C [4] was 96.6%. For the same molecule, the viability, T/C (second compound 0.003 µM, first compound 0.00316 µM) was 88%, the viability, T/C (second compound 0.003 µM, first compound 0.01 µM) was 97.6% and the viability, T/C [7] was 83.4%. The viability, T/C [8] was 102%, the viability, T/C [9] was 94.1% and the viability, T/C [10] was 111%. The viability, T/C (second compound 0.00949 µM, first compound 0.00316 µM) was 91.6%, the viability, T/C (second compound 0.00949 µM, first compound 0.01 µM) was 102% and the viability, T/C [13] was 104%. For the same molecule, the viability, T/C [14] was 106%, the viability, T/C [15] was 98.6% and the viability, T/C [16] was 98.3%. It also gave a viability, T/C (second compound 0.03 µM, first compound 0.00316 µM) of 81.4%, a viability, T/C (second compound 0.03 µM, first compound 0.01 µM) of 105% and a viability, T/C [19] of 95.8%. The viability, T/C [20] was 107%, the viability, T/C [21] was 116% and the viability, T/C [22] was 91.7%. For the same molecule, the viability, T/C (second compound 0.0949 µM, first compound 0.00316 µM) was 85.3%, the viability, T/C (second compound 0.0949 µM, first compound 0.01 µM) was 109% and the viability, T/C [25] was 121%. It also gave a viability, T/C [26] of 106%, a viability, T/C [27] of 95.6% and a viability, T/C [28] of 93.7%. The viability, T/C (second compound 0.3 µM, first compound 0.00316 µM) was 98.2%, the viability, T/C (second compound 0.3 µM, first compound 0.01 µM) was 93.7% and the viability, T/C [31] was 111%. It also gave a viability, T/C [32] of 97.5%, a viability, T/C [33] of 114% and a viability, T/C [34] of 99.7%.

From PubChem BioAssay AID2060908 (Molecular Pharmacology Branch, DTP, NCI, 2025)
